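96-well plates; 48 h exposure; 5 concentrations. Endpoints by linear interpolation between flanking doses. Not reached: highest tested concentration assigned. Here, GI50 denotes the concentration required for 50% inhibition of growth.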 Active and inactive are the calls of the source. Rule as the data show it: active = GI50 up to about 1.1 µM and inactive = higher. Where only a bound is given, the exact number is not on record here.

Some test systems named below: HOP-92; Hs-578T; SK-MEL-5; OVCAR-5; SF-268; NCI-H522; SR; RXF 393; UACC-62; ACHN; A498; T47D; UO-31; OVCAR-3; RPMI-8226; PC-3; KM12; HOP-62; EKVX.
Common to all, as to assay: inhibition of tumour cell growth, NCI panel, 48 h

As for `NCc1ccccc1.O=C(O)NCc1ccccc1`, the GI50 in the experiment on HOP-92 is 19.6 µM (inactive); in the experiment with Hs-578T it was 26.1 µM (inactive); in the experiment with SK-MEL-5, 16.8 µM (inactive); with OVCAR-5, 30.1 µM (inactive); in the experiment on SF-268, 39.7 µM (inactive); with NCI-H522, 21.8 µM (inactive). Also, the GI50 in the experiment on SR is 0.682 µM (active); in the experiment with RXF 393 it was 38.5 µM (inactive); in the experiment on UACC-62, 15.1 µM (inactive); in the experiment with ACHN it was 35.9 µM (inactive); with A498, 29 µM (inactive); in the experiment with T47D it was 23.9 µM (inactive). Besides, the GI50 in the experiment on UO-31 was 24.3 µM (inactive); in the experiment on OVCAR-3, 31.4 µM (inactive); with RPMI-8226, 12.6 µM (inactive); with PC-3, 20.8 µM (inactive); in the experiment with KM12, 26.2 µM (inactive); in the experiment on HOP-62, 38 µM (inactive). Also, the GI50 in the experiment with EKVX was 30.6 µM (inactive).

As to `Cc1cc2c(=Cc3ccc(N(C)C)cc3)c3ccccc3n2[n+]1C`, the GI50 was 0.459 µM (active) with HOP-92; 0.628 µM (active) in the experiment on Hs-578T; 0.414 µM (active) in the experiment on SK-MEL-5; 5.87 µM (inactive) in the experiment on OVCAR-5; 0.537 µM (active) with SF-268; 0.335 µM (active) with NCI-H522. Also, the GI50 with SR was 0.0865 µM (active); with RXF 393, 2.09 µM (inactive); with UACC-62, 1.4 µM (inactive); in the experiment with ACHN, 2.23 µM (inactive); in the experiment with A498, 1.87 µM (inactive); in the experiment with T47D, 0.282 µM (active). Besides, the GI50 in the experiment with UO-31 is 3.01 µM (inactive); with OVCAR-3 it was 0.313 µM (active); in the experiment with RPMI-8226 it was 0.107 µM (active); with PC-3 it was 0.44 µM (active); with KM12, 0.385 µM (active); with HOP-62 it was 0.656 µM (active). Moreover, the GI50 with EKVX is 1.02 µM (active).

As for `COc1cc2c(c(O)c1OC)C(O)C1CCC(=O)N1C2c1cccc2ccccc12` (centres undefined), the GI50 with HOP-92 was > 100 µM (inactive); in the experiment with Hs-578T, 48 µM (inactive); in the experiment on SK-MEL-5 it was > 100 µM (inactive); with OVCAR-5 it was > 100 µM (inactive); in the experiment on SF-268 it was > 100 µM (inactive); in the experiment with NCI-H522, 27.7 µM (inactive). For the same molecule, the GI50 was > 100 µM (inactive) in the experiment on SR; 57.9 µM (inactive) in the experiment on RXF 393; > 100 µM (inactive) with UACC-62; 82.2 µM (inactive) in the experiment with ACHN; > 100 µM (inactive) in the experiment on A498; > 100 µM (inactive) in the experiment on T47D. In addition, the GI50 was 91.8 µM (inactive) with UO-31; > 100 µM (inactive) in the experiment on OVCAR-3; > 100 µM (inactive) in the experiment on RPMI-8226; 49.7 µM (inactive) in the experiment with PC-3; 34.9 µM (inactive) in the experiment with KM12; > 100 µM (inactive) in the experiment with HOP-62. In addition, in the experiment on EKVX, the GI50 is 67.8 µM (inactive).

As for `Cc1ccc(CC(=O)Nc2ccc(NC(=O)CNC(=O)/C=C/c3ccc(-c4ccccc4)cc3)cc2C(=O)c2ccccc2)cc1`, the GI50 in the experiment on HOP-92 is 4.17 µM (inactive); in the experiment on Hs-578T, 4.71 µM (inactive); in the experiment on SK-MEL-5, 1.69 µM (inactive); in the experiment on OVCAR-5, 4.48 µM (inactive); in the experiment with SF-268 it was 2.45 µM (inactive); in the experiment with NCI-H522, 5.13 µM (inactive). Also, the GI50 in the experiment on SR was 1.84 µM (inactive); in the experiment on RXF 393, 2.38 µM (inactive); in the experiment with UACC-62, 13.1 µM (inactive); in the experiment with ACHN, 4.8 µM (inactive); with A498, 0.989 µM (active); in the experiment on T47D, 1.76 µM (inactive). Further, the GI50 in the experiment on UO-31 is 11.8 µM (inactive); with OVCAR-3, 4.98 µM (inactive); in the experiment on RPMI-8226, 10.4 µM (inactive); in the experiment on PC-3, 1.98 µM (inactive); with KM12, 3.56 µM (inactive); in the experiment on HOP-62 it was 2.55 µM (inactive). For the same molecule, the GI50 with EKVX was 3.47 µM (inactive).

In the case of `COC(=O)C1(CCC(=O)N(C)c2ccccc2)NNC2C(=O)N(c3ccccc3)C(=O)C21` (centres undefined), the GI50 with HOP-92, in the experiment with Hs-578T, with SK-MEL-5, with OVCAR-5, in the experiment on SF-268 and in the experiment on NCI-H522 was > 10 µM (inactive) in each case. Also, the GI50 with SR, with RXF 393, in the experiment on UACC-62, in the experiment with ACHN, with A498 and in the experiment with T47D was > 10 µM (inactive) in each case. In addition, the GI50 in the experiment on UO-31, with OVCAR-3, with RPMI-8226, in the experiment on PC-3, with KM12 and with HOP-62 was > 10 µM (inactive) each time. In addition, the GI50 with EKVX was > 10 µM (inactive).

Consider `Cc1cc(/N=C/c2ccc(Cl)cc2)n(-c2ccccc2)n1`, for which the GI50 with HOP-92 is 48 µM (inactive); in the experiment with Hs-578T, 58.7 µM (inactive); with SK-MEL-5, 27.6 µM (inactive); with OVCAR-5, 87.5 µM (inactive); in the experiment on SF-268, 69.3 µM (inactive); with NCI-H522 it was 23.1 µM (inactive). Moreover, the GI50 was 31 µM (inactive) in the experiment with SR; 22.9 µM (inactive) in the experiment on RXF 393; 54.2 µM (inactive) in the experiment with UACC-62; 47.2 µM (inactive) with ACHN; 21.9 µM (inactive) in the experiment with A498; 16.7 µM (inactive) in the experiment with T47D. Moreover, the GI50 in the experiment with UO-31 is 59 µM (inactive); in the experiment on OVCAR-3, 22.8 µM (inactive); with RPMI-8226, 24.6 µM (inactive); in the experiment on PC-3 it was 53.8 µM (inactive); in the experiment with KM12 it was 23.4 µM (inactive); in the experiment with HOP-62 it was 36 µM (inactive). Further, in the experiment with EKVX, the GI50 was 33 µM (inactive).

As for `CCCCNC1CCC2(SCCS2)c2[nH]c3ccccc3c21` (centres undefined), the GI50 with HOP-92 is 28.4 µM (inactive); in the experiment with Hs-578T, 29.8 µM (inactive); in the experiment on SK-MEL-5, 5.14 µM (inactive); in the experiment on OVCAR-5 it was 59.7 µM (inactive); with SF-268 it was 19.9 µM (inactive); in the experiment with NCI-H522, 8.61 µM (inactive). Besides, the GI50 with SR was 3.76 µM (inactive); in the experiment with RXF 393, 21 µM (inactive); with UACC-62 it was 20.2 µM (inactive); in the experiment on ACHN, 27.9 µM (inactive); in the experiment with A498 it was 20.8 µM (inactive); with T47D, 2.56 µM (inactive). Also, the GI50 in the experiment on UO-31 is 20.4 µM (inactive); in the experiment on OVCAR-3, 8.41 µM (inactive); in the experiment with RPMI-8226, 1.77 µM (inactive); with PC-3, 7.46 µM (inactive); in the experiment with KM12, 6.37 µM (inactive); in the experiment on HOP-62, > 53.8 µM (inactive). In the experiment with EKVX, the GI50 is 37.2 µM (inactive).

`CCOC(=O)NC(Nc1ccc([N+](=O)[O-])cc1)(C(F)(F)F)C(F)(F)F`: the GI50 in the experiment on HOP-92 is 31.1 µM (inactive); in the experiment on Hs-578T it was 33.9 µM (inactive); in the experiment on SK-MEL-5 it was 81.3 µM (inactive); in the experiment on OVCAR-5 it was > 100 µM (inactive); in the experiment with SF-268 it was > 100 µM (inactive); in the experiment with NCI-H522, 25.1 µM (inactive). The GI50 is 34.2 µM (inactive) in the experiment with SR; 12 µM (inactive) in the experiment on RXF 393; 95.1 µM (inactive) in the experiment with UACC-62; > 100 µM (inactive) with ACHN; 91.2 µM (inactive) in the experiment on A498; 58.3 µM (inactive) with T47D. Further, the GI50 was 27 µM (inactive) in the experiment on UO-31; 65.8 µM (inactive) in the experiment with OVCAR-3; 99.3 µM (inactive) in the experiment on RPMI-8226; 53.1 µM (inactive) with PC-3; 82.2 µM (inactive) with KM12; > 100 µM (inactive) in the experiment with HOP-62. Moreover, in the experiment on EKVX, the GI50 is 75.5 µM (inactive).

Consider `Oc1cc(Br)cc2cc(Cl)cnc12`, for which the GI50 was 23.4 µM (inactive) in the experiment on HOP-92; 0.845 µM (active) in the experiment with Hs-578T; 1.71 µM (inactive) in the experiment with SK-MEL-5; 18.7 µM (inactive) in the experiment with OVCAR-5; 0.893 µM (active) in the experiment with SF-268; 2.35 µM (inactive) in the experiment on NCI-H522. Also, the GI50 was 1.11 µM (active) with SR; 1.95 µM (inactive) in the experiment with RXF 393; 2.08 µM (inactive) in the experiment on UACC-62; 1.95 µM (inactive) with ACHN; 8.26 µM (inactive) in the experiment with A498; 3.21 µM (inactive) in the experiment on T47D. Besides, the GI50 with UO-31 was 1.48 µM (inactive); in the experiment on OVCAR-3 it was 1.95 µM (inactive); in the experiment with RPMI-8226, 2.54 µM (inactive); in the experiment on PC-3 it was 3.59 µM (inactive); with KM12, 4.06 µM (inactive); with HOP-62, 4.84 µM (inactive). In the experiment on EKVX, the GI50 is 3.99 µM (inactive).

On to `CCSCCCCC(c1ccc(O)cc1)C(C)(CC)c1ccc(O)cc1` (centres undefined), for which the GI50 with HOP-92 is 19.3 µM (inactive); in the experiment on Hs-578T, 23.6 µM (inactive); in the experiment on SK-MEL-5, 18.2 µM (inactive); in the experiment on OVCAR-5 it was 24.4 µM (inactive); in the experiment on SF-268, 20.3 µM (inactive); with NCI-H522, 17.7 µM (inactive). In addition, the GI50 in the experiment on SR was 38.7 µM (inactive); with RXF 393 it was 6.92 µM (inactive); with UACC-62, 27.2 µM (inactive); with ACHN it was 18.6 µM (inactive); in the experiment on A498 it was > 100 µM (inactive); in the experiment on T47D, 14.4 µM (inactive). Besides, the GI50 in the experiment on UO-31 is 19.6 µM (inactive); with OVCAR-3, 18.2 µM (inactive); with RPMI-8226, 19.5 µM (inactive); in the experiment on PC-3, 20.3 µM (inactive); in the experiment on KM12, 21.6 µM (inactive); with HOP-62, 53.7 µM (inactive). In the experiment on EKVX, the GI50 is 29.6 µM (inactive).

Take `CCOC(=O)Nc1cc2c(c(N)n1)N=C(c1ccccc1)CN2`: the GI50 was < 0.01 µM (active) in the experiment with HOP-92; < 0.0001 µM (active) in the experiment on Hs-578T; < 0.01 µM (active) in the experiment with SK-MEL-5; < 0.01 µM (active) in the experiment on OVCAR-5; < 0.01 µM (active) in the experiment with SF-268; < 0.01 µM (active) with NCI-H522. The GI50 in the experiment on SR is < 0.01 µM (active); in the experiment with RXF 393, < 0.0001 µM (active); in the experiment with UACC-62, < 0.0001 µM (active); with ACHN, < 0.01 µM (active); with A498, 0.31 µM (active); with T47D, 37.3 µM (inactive). Further, the GI50 in the experiment with UO-31 was < 0.0194 µM (active); in the experiment on OVCAR-3 it was < 0.01 µM (active); in the experiment on RPMI-8226 it was < 0.01 µM (active); in the experiment on PC-3 it was < 0.01 µM (active); with KM12, < 0.01 µM (active); in the experiment with HOP-62, < 0.01 µM (active). In addition, the GI50 with EKVX was < 0.0187 µM (active).

For the origin of these results see ChEMBL document CHEMBL1201862, “PubChem BioAssay data set” (2004).
